Key:
JAK2 kinase domain (JH1) = molecular target: T1, JAK2 kinase domain (JH1) (Homo sapiens, UniProt O60674); assay: HTRF-based selectivity assay, JAK2 catalytic domain; format: biochemical; settings: recombinant catalytic domain, ATP 14.7 μM
T1 construct: recombinant purified His or GST-tagged catalytic domain for each enzyme; made in house
Experimental: (§1) Example B-2: HTRF-Based Selectivity Assay
(§2) The ability of compounds to inhibit the activity of JAK1, JAK2, JAK3 and TYK2 is measured using a recombinant purified His or GST-tagged catalytic domain for each enzyme (JAK1, JAK2 and TYK2 are generated in-house; JAK3 was purchased from Carna biosciences, Cat #08-046) in an HTRF format biochemical assay. The reactions employs a commercial peptide substrate from Cisbio (Cat #62TK0PEC). The basic assay protocol is as follows: first, 2.5 μL of diluted compounds (4×) in DMSO are dispensed into a 384-well Optiplate. Next, 2.5 μL of enzyme (final concentrations for enzymes are: TYK2—700 ng/mL, JAK1—80.6 ng/mL, JAK2—2.1 ng/mL and JAK3—171.8 ng/mL) is added and incubated at RT for 5-20 min. Finally, 5 μl of mixture of 2× ATP [Final concentration 20 μM for TYK2, 21.43 μM for JAK1, 14.7 μM for JAK2 and 2.12 μM for JAK3]+2× Substrate [Final concentration 217 nM for TYK2, 454.7 nM for JAK1, 200 nM for JAK2 and 257.4 nM for JAK3] is added to 384 well Optiplate. Composition of Kinase assay buffer used in the assay is as follows: HEPES 50 mM, EGTA 1 mM, MgCl2 10 mM, DTT 2 mM, Tween-20 0.01% and water. Then the plates are shaken and then incubated at 26.5° C. for 60 min.

[1] = tested on: HEK-Blue IFNα/β cells (IFNα-stimulated STAT1 SEAP reporter; TYK2 JH2); assay: HEK-Blue IFNα/β SEAP reporter assay for profiling TYK2 pseudokinase (JH2) inhibition; format: cell-based; settings: Homo sapiens, HEK-Blue, 1 ng/mL human recombinant IFNα, read-out: IFNα (TYK2 inhibitory activity, IC50)
In short: (§3)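 Cells were pretreated 60 min with serially diluted compounds, then stimulated with 10 ng/mL human IL-23 for 22-24 hours (STAT3 line) or 1 ng/mL human IFNα for 16-18 h (STAT1 line). SEAP induction read with QUANTI-Blue.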

[2] = tested on: HEK-Blue IL-2 reporter cells (IL-2-stimulated STAT5 SEAP reporter); assay: HEK-Blue IL-2 SEAP reporter assay for determining selectivity; format: cell-based; settings: 4 ng/mL human recombinant IL-2
In short: (§4)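 Cells were plated for 20-22 h, then pretreated with serially diluted compound for 60 min. They were stimulated for 24 h with 4 ng/mL human recombinant IL-2 or 50 ng/mL human recombinant IFNγ, and SEAP induction was read with QUANTI-Blue.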

JAK3 kinase domain (JH1) = molecular target: T2, JAK3 kinase domain (JH1) (Homo sapiens, UniProt P52333); assay: HTRF-based selectivity assay, JAK3 catalytic domain; format: biochemical; settings: recombinant catalytic domain, ATP 2.12 μM
T2 construct: recombinant purified His or GST-tagged catalytic domain for each enzyme; purchased Carna biosciences 08-046
Experimental: as §1, §2

[3] = tested on: HEK-Blue IL-23 cells (IL-23-stimulated STAT3 SEAP reporter; TYK2 JH2); assay: HEK-Blue IL-23 SEAP reporter assay for profiling TYK2 pseudokinase (JH2) inhibition; format: cell-based; settings: 10 ng/mL human recombinant IL-23, SEAP reporter, read-out: IL23 (TYK2 inhibitory activity, IC50)
In short: as §3

JAK1 kinase domain (JH1) = molecular target: T3, JAK1 kinase domain (JH1) (Homo sapiens, UniProt P23458); assay: HTRF-based selectivity assay, JAK1 catalytic domain; format: biochemical; settings: recombinant catalytic domain, ATP 21.43 μM
T3 construct: recombinant purified His or GST-tagged catalytic domain for each enzyme; made in house
Experimental: as §1, §2

TYK2 kinase domain (JH1) = molecular target: T4, TYK2 kinase domain (JH1) (Homo sapiens, UniProt P29597); assay: HTRF-based selectivity assay, TYK2 catalytic domain; format: biochemical; settings: recombinant catalytic domain, ATP 20 μM
T4 construct: recombinant purified His or GST-tagged catalytic domain for each enzyme; made in house
T4 sequence (P29597 897-1176 limits assumed): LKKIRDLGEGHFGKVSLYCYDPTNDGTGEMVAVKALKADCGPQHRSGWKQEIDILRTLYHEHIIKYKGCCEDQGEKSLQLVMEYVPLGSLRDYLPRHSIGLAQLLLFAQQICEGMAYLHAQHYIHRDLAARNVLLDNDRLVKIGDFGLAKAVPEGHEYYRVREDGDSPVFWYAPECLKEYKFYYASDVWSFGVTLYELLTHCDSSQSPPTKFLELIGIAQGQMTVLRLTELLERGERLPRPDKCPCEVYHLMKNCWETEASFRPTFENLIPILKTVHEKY
Experimental: as §1, §2

[4] = tested on: HEK-Blue IFNγ reporter cells (IFNγ-stimulated STAT1 SEAP reporter); assay: HEK-Blue IFNγ SEAP reporter assay for determining selectivity; format: cell-based; settings: Homo sapiens, HEK-Blue, 50 ng/mL human recombinant IFNγ, read-out: IFN-γ (SEAP selectivity, IC50)
In short: as §4

T2 sequence (P52333 822-1111 limits assumed): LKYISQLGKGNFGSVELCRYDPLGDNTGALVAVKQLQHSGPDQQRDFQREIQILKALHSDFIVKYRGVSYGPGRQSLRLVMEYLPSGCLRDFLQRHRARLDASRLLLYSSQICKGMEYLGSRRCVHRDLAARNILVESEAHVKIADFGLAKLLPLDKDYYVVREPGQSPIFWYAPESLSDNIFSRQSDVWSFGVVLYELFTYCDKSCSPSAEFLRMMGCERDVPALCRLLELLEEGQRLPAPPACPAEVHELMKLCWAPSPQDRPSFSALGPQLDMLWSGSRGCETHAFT
T1 sequence (O60674 849-1124 limits assumed): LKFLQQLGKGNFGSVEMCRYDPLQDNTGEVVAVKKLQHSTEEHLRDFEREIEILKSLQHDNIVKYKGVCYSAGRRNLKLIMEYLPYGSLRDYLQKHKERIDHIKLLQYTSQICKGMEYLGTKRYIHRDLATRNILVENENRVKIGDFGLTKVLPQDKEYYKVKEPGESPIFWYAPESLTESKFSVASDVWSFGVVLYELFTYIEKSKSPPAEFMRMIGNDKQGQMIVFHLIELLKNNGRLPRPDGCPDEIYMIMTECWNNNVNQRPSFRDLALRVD
T3 sequence (P23458 875-1153 limits assumed): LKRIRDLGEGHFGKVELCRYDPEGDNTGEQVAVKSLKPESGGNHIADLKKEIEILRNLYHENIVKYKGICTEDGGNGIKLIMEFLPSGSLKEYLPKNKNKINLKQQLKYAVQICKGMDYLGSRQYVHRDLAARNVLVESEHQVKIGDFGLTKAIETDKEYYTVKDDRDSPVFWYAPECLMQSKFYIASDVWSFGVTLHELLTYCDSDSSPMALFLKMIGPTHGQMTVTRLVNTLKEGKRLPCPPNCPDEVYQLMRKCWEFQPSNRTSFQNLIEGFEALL

IC50 (JAK2 kinase domain (JH1)) | IC50 (JAK3 kinase domain (JH1)) | IC50 (JAK1 kinase domain (JH1)) | IC50 (TYK2 kinase domain (JH1)) | Compound | IC50 [1] | IC50 [2] | IC50 [3] | IC50 [4]
> 1000 nM | > 1000 nM | > 1000 nM | > 1000 nM | [2H]C([2H])([2H])NC(=O)c1nnc(NC(=O)[C@H]2C[C@H]2F)cc1Nc1cccc2c1N(C)Cc1nc(C)nn1-2 (single isomer, unassigned) [Compound 8] | 30 to 300 nM | > 1000 nM | < 30 nM | 
> 1000 nM | > 1000 nM | > 1000 nM | > 1000 nM | [2H]C([2H])([2H])NC(=O)c1nnc(NC(=O)C2CC2)cc1Nc1cccc2c1N(C)Cc1nc(C)nn1-2 [Compound 5, 6-(cyclopropanecarboxamido)-4-((2,5-dimethyl-4,5-dihydro-[1,2,4]triazolo[1,5-a]quinoxalin-6-yl)amino)-N-(methyl-d3)pyridazine-3-carboxamide] | < 30 nM | > 1000 nM | < 30 nM | 30 to 300 nM
> 1000 nM | > 1000 nM | > 1000 nM | > 1000 nM | [2H]C([2H])([2H])NC(=O)c1cnc(NC(=O)C2CC2)cc1Nc1cccc2c1N(C)Cc1ncnn1-2 [Compound 6, 6-(cyclopropanecarboxamido)-N-(methyl-d3)-4-((5-methyl-4,5-dihydro-[1,2,4]triazolo[1,5-a]quinoxalin-6-yl)amino)nicotinamide] | < 30 nM | > 1000 nM | < 30 nM | 300 to 1000 nM
> 1000 nM | > 1000 nM | > 1000 nM | > 1000 nM | [2H]C([2H])([2H])NC(=O)c1nnc(Nc2ccc(C(F)(F)F)cn2)cc1Nc1cccc2c1N(C)Cc1nc(C)nn1-2 [Compound 10, 4-((2,5-dimethyl-4,5-dihydro-[1,2,4]triazolo[1,5-a]quinoxalin-6-yl)amino)-N-(methyl-d3)-6-((5-(trifluoromethyl)pyridin-2-yl)amino)pyridazine-3-carboxamide] | 30 to 300 nM | > 1000 nM | < 30 nM | 
> 1000 nM | > 1000 nM | > 1000 nM | > 1000 nM | [2H]C([2H])([2H])NC(=O)c1nnc(Nc2ccc(C)cn2)cc1Nc1cccc2c1N(C)Cc1nc(C)nn1-2 [Compound 11, 4-((2,5-dimethyl-4,5-dihydro-[1,2,4]triazolo[1,5-a]quinoxalin-6-yl)amino)-N-(methyl-d3)-6-((5-methylpyridin-2-yl)amino)pyridazine-3-carboxamide] | < 30 nM |  | < 30 nM | 
> 1000 nM | > 1000 nM | > 1000 nM | > 1000 nM | [2H]C([2H])([2H])NC(=O)c1nnc(Nc2ccc(F)cn2)cc1Nc1cccc2c1N(C)Cc1nc(C)nn1-2 [Compound 12, 4-((2,5-dimethyl-4,5-dihydro-[1,2,4]triazolo[1,5-a]quinoxalin-6-yl)amino)-6-((5-fluoropyridin-2-yl)amino)-N-(methyl-d3)pyridazine-3-carboxamide] | < 30 nM | 30 to 300 nM | < 30 nM | 
> 1000 nM | > 1000 nM | > 1000 nM | > 1000 nM | [2H]C([2H])([2H])NC(=O)c1nnc(Nc2ccc(C#N)cn2)cc1Nc1cccc2c1N(C)Cc1nc(C)nn1-2 [Compound 13, 6-((5-cyanopyridin-2-yl)amino)-4-((2,5-dimethyl-4,5-dihydro-[1,2,4]triazolo[1,5-a]quinoxalin-6-yl)amino)-N-(methyl-d3)pyridazine-3-carboxamide] | < 30 nM | > 1000 nM | < 30 nM | 
> 1000 nM | > 1000 nM | > 1000 nM |  | [2H]C([2H])([2H])NC(=O)c1cnc(NC(=O)C2CC2)cc1Nc1cccc2c1N(C)Cc1nn(C)nc1-2 [Compound 45, 6-(cyclopropanecarboxamido)-4-((2,5-dimethyl-4,5-dihydro-2H-[1,2,3]triazolo[4,5-c]quinolin-6-yl)amino)-N-(methyl-d3)nicotinamide] | < 30 nM | > 1000 nM | < 30 nM | 30 to 300 nM
> 1000 nM | > 1000 nM | > 1000 nM |  | [2H]C([2H])([2H])NC(=O)c1nnc(NC(=O)C2CC2)cc1Nc1cccc2c1N(C)Cc1nn(C)nc1-2 [Compound 46, 6-(cyclopropanecarboxamido)-4-((2,5-dimethyl-4,5-dihydro-2H-[1,2,3]triazolo[4,5-c]quinolin-6-yl)amino)-N-(methyl-d3)pyridazine-3-carboxamide] | < 30 nM | > 1000 nM | < 30 nM | 30 to 300 nM
 | > 1000 nM | > 1000 nM | > 1000 nM | [2H]C([2H])([2H])NC(=O)c1cnc(NC(=O)C2CC2)cc1Nc1cccc2c1N(C([2H])([2H])[2H])Cc1nn(C)nc1-2 [Compound 47, 6-(cyclopropanecarboxamido)-N-(methyl-d3)-4-((2-methyl-5-(methyl-d3)-4,5-dihydro-2H-[1,2,3]triazolo[4,5-c]quinolin-6-yl)amino)nicotinamide] | < 30 nM | > 1000 nM | < 30 nM | 30 to 300 nM
> 1000 nM | > 1000 nM | > 1000 nM | > 1000 nM | [2H]C([2H])([2H])NC(=O)c1cnc(NC(=O)C2CC2)cc1Nc1cccc2c1N(C)C([2H])([2H])c1nn(C)nc1-2 [Compound 52, 6-(cyclopropanecarboxamido)-4-((2,5-dimethyl-4,5-dihydro-2H-[1,2,3]triazolo[4,5-c]quinolin-6-yl-4,4-d2)amino)-N-(methyl-d3)nicotinamide] | < 30 nM | > 1000 nM | < 30 nM | 
> 1000 nM | > 1000 nM | > 1000 nM | > 1000 nM | [2H]C([2H])([2H])NC(=O)c1cnc(NC(=O)C2CC2)cc1Nc1cccc2c1N(C)CCn1cnnc1-2 [Compound 78, 6-(cyclopropanecarboxamido)-N-(methyl-d3)-4-((7-methyl-6,7-dihydro-5H-benzo[f][1,2,4]triazolo[4,3-d][1,4]diazepin-8-yl)amino)nicotinamide] | > 1000 nM |  | 30 to 300 nM | 
> 1000 nM |  | > 1000 nM | > 1000 nM | [2H]C([2H])([2H])NC(=O)c1nnc(NC(=O)C2CC2)cc1Nc1nccc2c1N(C)Cc1nn(C)nc1-2 [Compound 88, 6-(cyclopropanecarboxamido)-4-((2,5-dimethyl-4,5-dihydro-2H-[1,2,3]triazolo[4,5-c][1,7]naphthyridin-6-yl)amino)-N-(methyl-d3)pyridazine-3-carboxamide] | < 30 nM | 300 to 1000 nM | < 30 nM | 30 to 300 nM
> 1000 nM | > 1000 nM | > 1000 nM | > 1000 nM | [2H]C([2H])([2H])NC(=O)c1cnc(NC(=O)C2CC2)cc1Nc1nccc2c1N(C)Cc1nn(C)nc1-2 [Compound 89, 6-(cyclopropanecarboxamido)-4-((2,5-dimethyl-4,5-dihydro-2H-[1,2,3]triazolo[4,5-c][1,7]naphthyridin-6-yl)amino)-N-(methyl-d3)nicotinamide] | < 30 nM | > 1000 nM | < 30 nM | 
